Patent US12384797B2, “Thioeno[3,2-b] pyridin-7-amine compounds for treating familial dysautonomia” (PTC THERAPEUTICS, INC., priority 2019, dated 2025)

Test system: Elongator complex protein 1 (ELP1, also referred to as IKBKAP)
Assay: IKBKAP-HTRF assay (IKBKAP protein in lysates of FD patient-derived fibroblasts)
Type: cell-based, human
Settings: 48 hours incubation, 7-point concentration curve
How it was run: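 FD patient-derived fibroblasts (10,000/well) were treated 48 h at 37 °C with a 7-point, 3.16-fold compound series in triplicate, then lysed. IKBKAP was read by sandwich HTRF (donor/acceptor anti-IKAP antibodies, overnight at 4 °C, 665/620 nm). MFI is ΔF over vehicle ΔF; EC2x is the concentration giving twice the vehicle IKBKAP level.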

Structure (SMILES) | EC2x for IKBKAP protein expression (concentration producing two times the amount of IKBKAP protein vs DMSO vehicle control) | MFI (maximum fold increase in IKBKAP protein abundance relative to the vehicle control)
Cc1c(C[C@H](C)N)sc2c(NCc3ncc(F)s3)cc(Cl)nc12 [Compound 129, 2-[(2S)-2-aminopropyl]-5-chloro-N-[(5-fluoro-1,3-thiazol-2-yl)methyl]-3-methylthieno[3,2-b]pyridin-7-amine] | **** (between >0.005 μM and ≤0.02 μM is indicated by four stars (****)) | ***** (>4.9 is indicated by five stars (*****))
C[S+]([O-])C[C@H](N)Cc1sc2c(NCc3ccco3)cc(Cl)nc2c1Cl (stereo partly drawn) [Compound 167, [(2R)-2-amino-3-(3,5-dichloro-7-{[(furan-2-yl)methyl]amino}thieno[3,2-b]pyridin-2-yl)propyl](methyl)sulfaniumolate] | ***** (≤0.005 μM is indicated by five stars (*****)) | ***** (>4.9 is indicated by five stars (*****))
COC(=O)[C@H](N)Cc1sc2c(NCc3ccco3)cc(Cl)nc2c1C [Compound 131, methyl 3-(5-chloro-7-{[(furan-2-yl)methyl]amino}-3-methylthieno[3,2-b]pyridin-2-yl)-D-alaninate] | **** (between >0.005 μM and ≤0.02 μM is indicated by four stars (****)) | **** (between >3.9 and ≤4.9 is indicated by four stars (****))
CN[C@@H](C)Cc1sc2c(NCc3ccco3)cc(Cl)nc2c1C [Compound 42, 5-chloro-N-[(furan-2-yl)methyl]-3-methyl-2-[(2S)-2-(methylamino)propyl]thieno[3,2-b]pyridin-7-amine] | **** (between >0.005 μM and ≤0.02 μM is indicated by four stars (****)) | ***** (>4.9 is indicated by five stars (*****))
Cc1c(C[C@@H](N)C(=O)N(C)c2ccccc2)sc2c(NCc3ccco3)cc(Cl)nc12 [Compound 141, 3-(5-chloro-7-{[(furan-2-yl)methyl]amino}-3-methylthieno[3,2-b]pyridin-2-yl)-N-methyl-N-phenyl-D-alaninamide] | *** (between >0.02 μM and ≤0.5 μM is indicated by three stars (***)) | **** (between >3.9 and ≤4.9 is indicated by four stars (****))
C[C@@H](O)[C@H](N)Cc1sc2c(NCc3ccco3)cc(Cl)nc2c1Br [Compound 165, (2R,3R)-3-amino-4-(3-bromo-5-chloro-7-{[(furan-2-yl)methyl]amino}thieno[3,2-b]pyridin-2-yl)butan-2-ol] | ***** (≤0.005 μM is indicated by five stars (*****)) | ***** (>4.9 is indicated by five stars (*****))
Cc1c(C[C@H](C)N)sc2c(NCc3ccccc3F)cc(Cl)nc12 [Compound 29, 2-[(2S)-2-aminopropyl]-5-chloro-N-[(2-fluorophenyl)methyl]-3-methylthieno[3,2-b]pyridin-7-amine] | ***** (≤0.005 μM is indicated by five stars (*****)) | ***** (>4.9 is indicated by five stars (*****))
Cc1c([C@@H](C)N)sc2c(NCc3cccs3)cc(Cl)nc12 [Compound 56, 2-[(1R)-1-aminoethyl]-5-chloro-3-methyl-N-[(thiophen-2-yl)methyl]thieno[3,2-b]pyridin-7-amine] | * (An EC2x>1 μM is indicated by one star (*)) | * (An MFI≤1.9 is indicated by one star (*))
